# Source: patent publication US4130648A, “5-Fluorouracil derivatives and antitumor preparations containing the same” (Eisai Co., Ltd., priority 1976, dated 1978)
# Where two headings read alike, the source gives them in different places.
# Experiments:
# Sarcoma-180 (S-180) [1] = test: Inhibitory effect on the growth of S-180 ascites form (TPCV); type: in vivo, mice (ICR/JCL, female); settings: for Tumor growth (TPCV : T/C %): i.p., 24 hours after implantation, day 10; for ED50: Mus musculus, ip, 240 h; for ED50 / safety index (LD50 /ED50): S-180 ascites form, from Tables 1 and 2
# Description: 2. Antitumor activity against Sarcoma-180 (S-180)
# (1) Inhibitory effect on the growth of S-180 ascites form (Intraperitoneal administration)
# 10^6 cells of S-180 were intraperitoneally implanted in ICR/JCL mice (female, 8-10 weeks old).
# Compound A was administered as a solution of soybean oil and 5-FU was administered as saline solution, at 24 hours after the implantation.
# Soybean oil was administered as control for the Compound A. Saline solution was administered as control for 5-FU.
# Ten days after the implantation of the tumor cells, the total packed cell volumes (TPCV) were measured. The measurement of TPCV was carried out in accordance with Hoshi, A. et al., Chemical & Pharmaceutical Bulletion 17 (4), 848-850 (1969). The results are shown in Table 2, wherein T/C % means the ratio of the TPCV of the test groups to that of the control group.
# [2] = Acute toxicity, LD50 after three weeks observation; type: in vivo, mice (CDF1, female); settings: mouse, in vivo, CDF1 mice, three weeks observation
# From the text: (§1) LD50 (mg/Kg) after three weeks observation in CDF1 mice (female, 8-10 weeks old)
# CDF1 mice = test: Acute toxicity, LD50 after three weeks observation; type: in vivo, female); settings: from Table 1, compared with FT-207 and 5-FU
# From the text: as §1
# L-1210 leukemia [3] = test: Survival effect, L-1210 leukemia; type: in vivo, mice (CDF1, female); settings: for ILS % over controls / Mean survival days: 24 hours after implantation
# Description: 3. Antitumor activity on L-1210 leukemia
# 10^5 cells of L-1210 leukemia were intraperitoneally implanted in CDF1 mice (female, 8-10 weeks old). […]
# MCT was administered as control for Compound A.
# Mean survival time after the implantation was determined, and the increase in life-span (ILS) over controls was calculated.
# Sarcoma-180 (S-180) [4] = test: Survival effect, S-180; type: in vivo, mice (ICR/JCL, female); settings: for ILS (%) over control / Mean survival days: 24 hours after implantation
# Description: 10^6 cells of S-180 were intraperitoneally implanted in ICR/JCL mouse (female, 6-8 weeks old).
# Compound A was administered as a solution of soybean oil at 24 hours after the implantation.
# Soybean oil was administered as control for Compound A.
# Survival days after implantation was measured. The increase in life-span over control groups (ILS = T/C % - 100) was calculated.
# Sarcoma-180 (S-180) [5] = test: Effect on growth of solid tumor by oral administration, S-180; type: in vivo, mice (ICR/JCL, female); settings: for Tumor growth (weight : T/C %): 3 hours after implantation, 20 days after; for minimal effective dose: Mus musculus, 480 h, read-out: minimum effective dose
# Description: (3) Effect on growth of solid tumor by oral administration
# 1.8 × 10^6 cells of S-180 were implanted subcutaneously in ICR/JCL mice (female, 6-8 weeks old).
# Each of the drugs was orally administered as a solution of safflower oil 3 hours after the implantation.
# Safflower oil was administered as control for each of the drugs.
# Twenty days after, the tumor weight was measured, and the ratio of the tumor weight to that of the control group (T/C %) was calculated.
# L-1210 leukemia [6] = test: Duration of antitumor activity, L-1210 leukemia; type: in vivo, mice (CDF1, female)
# From the text: (2) Duration of antitumor activity
# 10^5 cells of L-1210 leukemia were intraperitoneally implanted in the mice.
# Survival days after the implantation were counted.
# [7] = clinical background; cited from earlier work
# [8] = ip, intraperitoneal administration
# [9] = sc, subcutaneous administration
compound,measurement,setting,value
"Cc1c(C)c2c(c(C)c1OC(=O)n1cc(F)c(=O)[nH]c1=O)CCC(C)(CCCC(C)CCCC(C)CCCC(C)C)O2 (racemic) [Compound A, N1-d,l-α-tocopheryl carbonyl-5-fluorouracil]",Tumor growth (TPCV : T/C %),Sarcoma-180 (S-180) [1]; 62 mg/Kg,77.5%
same,Tumor growth (TPCV : T/C %),Sarcoma-180 (S-180) [1]; 125 mg/Kg,64.7%
same,Tumor growth (TPCV : T/C %),Sarcoma-180 (S-180) [1]; 250 mg/Kg,30.4%
same,Tumor growth (TPCV : T/C %),Sarcoma-180 (S-180) [1]; 500 mg/Kg,3.3%
same,Tumor growth (TPCV : T/C %),Sarcoma-180 (S-180) [1]; 1000 mg/Kg,0%
same,Tumor growth (TPCV : T/C %),Sarcoma-180 (S-180) [1]; 2000 mg/Kg,0%
same,Tumor growth (TPCV : T/C %),Sarcoma-180 (S-180) [1]; 4000 mg/Kg,0%
same,ED50,Sarcoma-180 (S-180) [1],~170 mg/kg
same,safety index (LD50 /ED50),Sarcoma-180 (S-180) [1],more than 24
same,toxicity as an antitumor agent,Sarcoma-180 (S-180) [1]; compared with 5-FU,less toxic
same,LD50 at 504 h,[2]; [8],> 4000 mg/kg
same,LD50 at 504 h,[2]; [9],> 4000 mg/kg
same,LD50 at 504 h,[2]; oral administration,> 4000 mg/kg
same,acute toxicity,CDF1 mice,lower acute toxicity than FT-207 and 5-FU
same,ILS % over controls,L-1210 leukemia [3]; 125 mg/Kg i.p. in MCT,0%
same,Mean survival days,L-1210 leukemia [3]; 125 mg/Kg i.p. in MCT,7.0 days
same,ILS % over controls,L-1210 leukemia [3]; 250 mg/Kg i.p. in MCT,14%
same,Mean survival days,L-1210 leukemia [3]; 250 mg/Kg i.p. in MCT,8.0 days
same,ILS % over controls,L-1210 leukemia [3]; 500 mg/Kg i.p. in MCT,40%
same,Mean survival days,L-1210 leukemia [3]; 500 mg/Kg i.p. in MCT,9.8 days
same,ILS % over controls,L-1210 leukemia [3]; 1000 mg/Kg i.p. in MCT,73%
same,Mean survival days,L-1210 leukemia [3]; 1000 mg/Kg i.p. in MCT,12.1 days
same,ILS % over controls,L-1210 leukemia [3]; 2000 mg/Kg i.p. in MCT,79%
same,Mean survival days,L-1210 leukemia [3]; 2000 mg/Kg i.p. in MCT,12.5 days
same,ILS % over controls,L-1210 leukemia [3]; 4000 mg/Kg i.p. in MCT,93%
same,Mean survival days,L-1210 leukemia [3]; 4000 mg/Kg i.p. in MCT,13.5 days
same,availability,L-1210 leukemia [3]; compared with 5-FU,higher than that of 5-FU
same,"ratio of dose (corresponding ILS) to LD50, compared with 5-FU",L-1210 leukemia [3]; compared with 5-FU,smaller than that of 5-FU
same,effectiveness,L-1210 leukemia [3]; dose of about 1/8 LD50,effective
same,ILS (%) over control,Sarcoma-180 (S-180) [4]; 500 mg/Kg,139.1%
same,Mean survival days,Sarcoma-180 (S-180) [4]; 500 mg/Kg,33.0 days
same,ILS (%) over control,Sarcoma-180 (S-180) [4]; 1000 mg/Kg,215.2%
same,Mean survival days,Sarcoma-180 (S-180) [4]; 1000 mg/Kg,43.5 days
same,ILS (%) over control,Sarcoma-180 (S-180) [4]; 2000 mg/Kg,160.9%
same,Mean survival days,Sarcoma-180 (S-180) [4]; 2000 mg/Kg,36.0 days
same,ILS (%) over control,Sarcoma-180 (S-180) [4]; 4000 mg/Kg,182.6%
same,Mean survival days,Sarcoma-180 (S-180) [4]; 4000 mg/Kg,39.0 days
same,survival effect,Sarcoma-180 (S-180) [4]; single administration of 1/8 LD50,marked effect
same,Tumor growth (weight : T/C %),Sarcoma-180 (S-180) [5]; 62 mg/Kg oral,106%
same,Tumor growth (weight : T/C %),Sarcoma-180 (S-180) [5]; 125 mg/Kg oral,87%
same,Tumor growth (weight : T/C %),Sarcoma-180 (S-180) [5]; 250 mg/Kg oral,33%
same,Tumor growth (weight : T/C %),Sarcoma-180 (S-180) [5]; 500 mg/Kg oral,47%
same,Tumor growth (weight : T/C %),Sarcoma-180 (S-180) [5]; 1000 mg/Kg oral,38%
same,Tumor growth (weight : T/C %),Sarcoma-180 (S-180) [5]; 2000 mg/Kg oral,36%
same,minimal effective dose,"Sarcoma-180 (S-180) [5]; S-180, po",~250 mg/kg
same,availability,Sarcoma-180 (S-180) [5]; compared with FT-207 and 5-FU,higher than those of the other two drugs
same,ratio of the minimum effective dose to toxic dose (LD50),"Sarcoma-180 (S-180) [5]; oral, S-180 solid tumor",less than 1/16
same,Mean survival days,"L-1210 leukemia [6]; 1000 mg/Kg i.p. in MCT, 0 days before tumor implantation",11.6 days
same,Mean survival days,"L-1210 leukemia [6]; 1000 mg/Kg i.p. in MCT, 1 day before tumor implantation",13.0 days
same,Mean survival days,"L-1210 leukemia [6]; 1000 mg/Kg i.p. in MCT, 2 days before tumor implantation",16.4 days
same,Mean survival days,"L-1210 leukemia [6]; 1000 mg/Kg i.p. in MCT, 3 days before tumor implantation",11.8 days
same,Mean survival days,"L-1210 leukemia [6]; 1000 mg/Kg i.p. in MCT, 4 days before tumor implantation",11.2 days
same,Mean survival days,"L-1210 leukemia [6]; 1000 mg/Kg i.p. in MCT, 6 days before tumor implantation",13.5 days
same,duration of antitumor effects,L-1210 leukemia [6]; from Table 6,6 days
same,survival effects,"L-1210 leukemia [6]; same day of implantation, or 1-6 days prior to the implantation",exhibits survival effects
"O=c1[nH]cc(F)c(=O)[nH]1 [Example 5-FU, 5-fluorouracil]",Tumor growth (TPCV : T/C %),Sarcoma-180 (S-180) [1]; 34 mg/Kg,43.3%
same,Tumor growth (TPCV : T/C %),Sarcoma-180 (S-180) [1]; 68 mg/Kg,26.4%
same,Tumor growth (TPCV : T/C %),Sarcoma-180 (S-180) [1]; 125 mg/Kg,4.3%
same,Tumor growth (TPCV : T/C %),Sarcoma-180 (S-180) [1]; 250 mg/Kg,died
same,Tumor growth (TPCV : T/C %),Sarcoma-180 (S-180) [1]; 500 mg/Kg,died
same,ED50,Sarcoma-180 (S-180) [1],~25 mg/kg
same,safety index (LD50 /ED50),Sarcoma-180 (S-180) [1],about 5
same,LD50 at 504 h,[2]; [8],150 mg/kg
same,LD50 at 504 h,[2]; [9],175 mg/kg
same,LD50 at 504 h,[2]; intravenous administration,135 mg/kg
same,LD50 at 504 h,[2]; oral administration,120 mg/kg
same,ILS % over controls,L-1210 leukemia [3]; 15 mg/Kg i.p. in saline,15%
same,Mean survival days,L-1210 leukemia [3]; 15 mg/Kg i.p. in saline,8.1 days
same,ILS % over controls,L-1210 leukemia [3]; 30 mg/Kg i.p. in saline,25%
same,Mean survival days,L-1210 leukemia [3]; 30 mg/Kg i.p. in saline,8.8 days
same,ILS % over controls,L-1210 leukemia [3]; 60 mg/Kg i.p. in saline,38%
same,Mean survival days,L-1210 leukemia [3]; 60 mg/Kg i.p. in saline,9.7 days
same,toxicity at the effective dosage,[7],relatively severe toxicity
same,Tumor growth (weight : T/C %),Sarcoma-180 (S-180) [5]; 10 mg/Kg oral,156%
same,Tumor growth (weight : T/C %),Sarcoma-180 (S-180) [5]; 20 mg/Kg oral,55%
same,Tumor growth (weight : T/C %),Sarcoma-180 (S-180) [5]; 40 mg/Kg oral,52%
same,Tumor growth (weight : T/C %),Sarcoma-180 (S-180) [5]; 80 mg/Kg oral,63%
same,minimal effective dose,"Sarcoma-180 (S-180) [5]; S-180, po",~20 mg/kg
same,ratio of the minimum effective dose to toxic dose (LD50),"Sarcoma-180 (S-180) [5]; oral, S-180 solid tumor",about 1/6
same,Mean survival days,"L-1210 leukemia [6]; 50 mg/Kg i.p. in saline, 1 day before tumor implantation",9.0 days
same,Mean survival days,"L-1210 leukemia [6]; 50 mg/Kg i.p. in saline, 2 days before tumor implantation",9.0 days
same,Mean survival days,"L-1210 leukemia [6]; 50 mg/Kg i.p. in saline, 4 days before tumor implantation",8.8 days
"O=c1[nH]c(=O)n(C2CCCO2)cc1F (stereo not drawn) [FT-207, reference compound]",ILS % over controls,L-1210 leukemia [3]; 50 mg/Kg i.p. in saline,0%
same,Mean survival days,L-1210 leukemia [3]; 50 mg/Kg i.p. in saline,7.0 days
same,ILS % over controls,L-1210 leukemia [3]; 200 mg/Kg i.p. in saline,1%
same,Mean survival days,L-1210 leukemia [3]; 200 mg/Kg i.p. in saline,7.1 days
same,effectiveness,L-1210 leukemia [3]; dose of about 1/4 LD50,it cannot be confirmed that FT-207 is effective
same,Tumor growth (weight : T/C %),Sarcoma-180 (S-180) [5]; 25 mg/Kg oral,148%
same,Tumor growth (weight : T/C %),Sarcoma-180 (S-180) [5]; 50 mg/Kg oral,269%
same,Tumor growth (weight : T/C %),Sarcoma-180 (S-180) [5]; 100 mg/Kg oral,58%
same,Tumor growth (weight : T/C %),Sarcoma-180 (S-180) [5]; 200 mg/Kg oral,43%
same,Tumor growth (weight : T/C %),Sarcoma-180 (S-180) [5]; 400 mg/Kg oral,34%
same,minimal effective dose,"Sarcoma-180 (S-180) [5]; oral, S-180 solid tumor, from Table 4",~100 mg/kg
same,Mean survival days,"L-1210 leukemia [6]; 200 mg/Kg i.p. in saline, 1 day before tumor implantation",8.8 days
same,Mean survival days,"L-1210 leukemia [6]; 200 mg/Kg i.p. in saline, 2 days before tumor implantation",9.0 days
same,Mean survival days,"L-1210 leukemia [6]; 200 mg/Kg i.p. in saline, 4 days before tumor implantation",9.0 days
